According to BindingDB's records for doi:10.1021/jm950372w (Rotta Research Laboratorium, 1996):

Assays:
[1] = biological target: Gastrin/cholecystokinin type B receptor (Cavia porcellus); assay: Inhibition of binding of [3H]N-Me-N-Leu-CCK-8 to cholecystokinin type B receptor in guinea pig brain cortex
[2] = biological target: Gastrin/cholecystokinin type B receptor (Oryctolagus cuniculus); assay: In vitro inhibition of gastrin-induced [Ca2+] cytosolic elevation in isolated rabbit parietal cells

Structure (SMILES) | IC50 [1] [nM] | IC50 [2] [nM]
O=C(CCC(NC(=O)c1cc(Cl)cc(Cl)c1)C(=O)N1CCC2(CCCC2)CC1)N[C@H](Cc1ccccn1)C(=O)O (stereo partly drawn) [(R)-2-[5-(8-Aza-spiro[4.5]dec-8-yl)-4-(3,5-dichloro-benzoylamino)-5-oxo-pentanoylamino]-3-pyridin-2-yl-propionic acid] | 155 | 307
O=C(CCC(NC(=O)c1cc(Cl)cc(Cl)c1)C(=O)N1CCC2(CCCC2)CC1)N[C@@H](Cc1c[nH]c2ccccc12)C(=O)O (stereo partly drawn) [(S)-2-[5-(8-Aza-spiro[4.5]dec-8-yl)-4-(3,5-dichloro-benzoylamino)-5-oxo-pentanoylamino]-3-(1H-indol-3-yl)-propionic acid] | 216 | 35
CN(C(=O)CCC(NC(=O)c1cc(Cl)cc(Cl)c1)C(=O)N1CCC2(CCCC2)CC1)c1ccc(C(=O)O)cc1 (stereo not drawn) [4-{[5-(8-Aza-spiro[4.5]dec-8-yl)-4-(3,5-dichloro-benzoylamino)-5-oxo-pentanoyl]-methyl-amino}-benzoic acid] | 1420 | 1080
O=C(CCC(NC(=O)c1cc(Cl)cc(Cl)c1)C(=O)N1CCC2(CCCC2)CC1)Nc1ccccc1C(=O)O (stereo not drawn) [2-[5-(8-Aza-spiro[4.5]dec-8-yl)-4-(3,5-dichloro-benzoylamino)-5-oxo-pentanoylamino]-benzoic acid] | 443 | 55
O=C(O)CC[C@H](NC(=O)CCC(NC(=O)c1cc(Cl)cc(Cl)c1)C(=O)N1CCC2(CCCC2)CC1)C(=O)N1CCC2(CCCC2)CC1 (stereo partly drawn) [(S)-5-(8-Aza-spiro[4.5]dec-8-yl)-4-[5-(8-aza-spiro[4.5]dec-8-yl)-4-(3,5-dichloro-benzoylamino)-5-oxo-pentanoylamino]-5-oxo-pentanoic acid] | 141 | 37
O=C(O)C[C@H](NC(=O)CCC(NC(=O)c1cc(Cl)cc(Cl)c1)C(=O)N1CCC2(CCCC2)CC1)C(=O)Nc1cccc2ccccc12 (stereo partly drawn) [(S)-3-[5-(8-Aza-spiro[4.5]dec-8-yl)-4-(3,5-dichloro-benzoylamino)-5-oxo-pentanoylamino]-N-naphthalen-1-yl-succinamic acid] | 215 | 19
O=C(CC(NC(=O)CCC(NC(=O)c1cc(Cl)cc(Cl)c1)C(=O)N1CCC2(CCCC2)CC1)C(=O)O)NCc1ccccc1 (stereo not drawn) [2-[5-(8-Aza-spiro[4.5]dec-8-yl)-4-(3,5-dichloro-benzoylamino)-5-oxo-pentanoylamino]-N-benzyl-succinamic acid] | 385 | 76
CCCN(CCC)C(=O)[C@H](CCC(=O)O)NC(=O)CCC(NC(=O)c1cc(Cl)cc(Cl)c1)C(=O)N1CCC2(CCCC2)CC1 (stereo partly drawn) [(S)-4-[5-(8-Aza-spiro[4.5]dec-8-yl)-4-(3,5-dichloro-benzoylamino)-5-oxo-pentanoylamino]-4-dipropylcarbamoyl-butyric acid] | 299 | 119
O=C(O)CC[C@@H](NC(=O)CCC(NC(=O)c1cc(Cl)cc(Cl)c1)C(=O)N1CCC2(CCCC2)CC1)C(=O)Nc1cccc2ccccc12 (stereo partly drawn) [(R)-4-[5-(8-Aza-spiro[4.5]dec-8-yl)-4-(3,5-dichloro-benzoylamino)-5-oxo-pentanoylamino]-4-(naphthalen-1-ylcarbamoyl)-butyric acid] | 85 | 17
O=C(O)CC[C@H](NC(=O)CCC(NC(=O)c1cc(Cl)cc(Cl)c1)C(=O)N1CCC2(CCCC2)CC1)C(=O)NC1CCCc2ccccc21 (stereo partly drawn) [(S)-4-[5-(8-Aza-spiro[4.5]dec-8-yl)-4-(3,5-dichloro-benzoylamino)-5-oxo-pentanoylamino]-4-(1,2,3,4-tetrahydro-naphthalen-1-ylcarbamoyl)-butyric acid] | 46 | 9
CCCCC(NC(=O)CCC(NC(=O)c1cc(Cl)cc(Cl)c1)C(=O)N1CCC2(CCCC2)CC1)C(=O)O (stereo not drawn) [2-[5-(8-Aza-spiro[4.5]dec-8-yl)-4-(3,5-dichloro-benzoylamino)-5-oxo-pentanoylamino]-hexanoic acid] | 1060 | 95
O=C(O)CC[C@@H](NC(=O)c1cc(Cl)cc(Cl)c1)C(=O)N1CCC2(CCCC2)CC1 [(R)-5-(8-Aza-spiro[4.5]dec-8-yl)-4-(3,5-dichloro-benzoylamino)-5-oxo-pentanoic acid] | – | 1220
